Data set [1] deals with Mus musculus. Put plainly: Toxicity day survivors was determined by the ratio of animals survived to that of test animals at 120 mg/kg intraperitoneally in CD2F1 mice; 6/6. Details: dose 120 mg/kg, route intraperitoneal. The format is organism-based. Conditions: in vivo, ip.
Data set [2] concerns Mus musculus. Put plainly: Toxicity day survivors was determined by the ratio of animals survived to that of test animals at 60 mg/kg intraperitoneally in CD2F1 mice; 6/6. Format: organism-based. Set-up: dose 60 mg/kg, route intraperitoneal. Conditions: in vivo, ip.
Data set [3] has as its system Mus musculus. Kind of data set: Body weight change of test animals to that of control was determined after injection at 60 mg/kg intraperitoneally in CD2F1 mice. The format is functional. Conditions: route intraperitoneal.
In data set [4] the test system is Mus musculus. Put plainly: Ratio of treated to that of untreated tumor-bearing control animals at 60 mg/kg intraperitoneally in CD2F1 mice was determined. Format: functional. Conditions: route intraperitoneal.
Data set [5] relates to Mus musculus. Put plainly: Ratio of treated to that of untreated tumor-bearing control animals at 480 mg/kg intraperitoneally in CD2F1 mice was determined. The format is functional. Conditions: route intraperitoneal.
The subject of data set [6] is Mus musculus. Put plainly: Ratio of treated to that of untreated tumor-bearing control animals at 240 mg/kg intraperitoneally in CD2F1 mice was determined. Format: functional. Conditions: route intraperitoneal.
Data set [7] relates to Mus musculus. Kind of data set: Ratio of treated to that of untreated tumor-bearing control animals at 120 mg/kg intraperitoneally in CD2F1 mice was determined. The format is functional. Conditions: route intraperitoneal.
The subject of data set [8] is Mus musculus. Kind of data set: Net log cell kill was determined after injecting 120 mg/kg intraperitoneally in CD2F1 mice. The format is functional. Conditions: route intraperitoneal.
Data set [9] deals with Mus musculus. Kind of data set: Net log cell kill was determined after injecting 60 mg/kg intraperitoneally in CD2F1 mice. Format: functional. Conditions: route intraperitoneal.
For data set [10], the system named is Mus musculus. Kind of data set: Toxicity day survivors was determined by the ratio of animals survived to that of test animals at 480 mg/kg intraperitoneally in CD2F1 mice; 6/6. The format is organism-based. Details: dose 480 mg/kg, route intraperitoneal. Conditions: in vivo, ip.
Data set [11] deals with Mus musculus. Put plainly: Body weight change of test animals to that of control was determined after injection at 480 mg/kg intraperitoneally in CD2F1 mice. The format is functional. Conditions: route intraperitoneal.
The test system of data set [12] is Mus musculus. Put plainly: Toxicity day survivors was determined by the ratio of animals survived to that of test animals at 240 mg/kg intraperitoneally in CD2F1 mice; 6/6. Format: organism-based. Set-up: dose 240 mg/kg, route intraperitoneal. Conditions: in vivo, ip.
Data set [13] concerns Mus musculus. Kind of data set: Body weight change of test animals to that of control was determined after injection at 240 mg/kg intraperitoneally in CD2F1 mice. Conditions: route intraperitoneal. The format is functional.
The test system of data set [14] is Mus musculus. Put plainly: Net log cell kill was determined after injecting 240 mg/kg intraperitoneally in CD2F1 mice. The format is functional. Conditions: route intraperitoneal.
Data set [15] has as its system Mus musculus. Kind of data set: Net log cell kill was determined after injecting 480 mg/kg intraperitoneally in CD2F1 mice. Format: functional. Conditions: route intraperitoneal.
In data set [16] the test system is Mus musculus. Put plainly: Body weight change of test animals to that of control was determined after injection at 120 mg/kg intraperitoneally in CD2F1 mice. Format: functional. Conditions: route intraperitoneal.
Data set [17] concerns Mus musculus. Put plainly: Body weight change of test animals to that of control was determined after injection at 3.12 mg/kg intraperitoneally in CD2F1 mice. Format: functional. Conditions: route intraperitoneal.
For data set [18], the system named is Mus musculus. Kind of data set: Toxicity day survivors was determined by the ratio of animals survived to that of test animals at 25 mg/kg intraperitoneally in CD2F1 mice; 4/6. The format is organism-based. Details: dose 25 mg/kg, route intraperitoneal. Conditions: in vivo, ip.
In data set [19] the test system is Mus musculus. Put plainly: Net log cell kill was determined after injecting 1.56 mg/kg intraperitoneally in CD2F1 mice. Format: functional. Conditions: route intraperitoneal.
The subject of data set [20] is Mus musculus. Put plainly: Body weight change of test animals to that of control was determined after injection at 12.5 mg/kg intraperitoneally in CD2F1 mice. Format: functional. Conditions: route intraperitoneal.
Data set [21] concerns Mus musculus. Kind of data set: Toxicity day survivors was determined by the ratio of animals survived to that of test animals at 1.56 mg/kg intraperitoneally in CD2F1 mice; 6/6. The format is organism-based. Details: dose 1.56 mg/kg, route intraperitoneal. Conditions: in vivo, ip.
The subject of data set [22] is Mus musculus. Put plainly: Net log cell kill was determined after injecting 3.12 mg/kg intraperitoneally in CD2F1 mice. Format: functional. Conditions: route intraperitoneal.
Data set [23] concerns Mus musculus. Put plainly: Ratio of treated to that of untreated tumor-bearing control animals at 6.25 mg/kg intraperitoneally in CD2F1 mice was determined. The format is functional. Conditions: route intraperitoneal.
Data set [24] concerns Mus musculus. Kind of data set: Ratio of treated to that of untreated tumor-bearing control animals at 12.5 mg/kg intraperitoneally in CD2F1 mice was determined. The format is functional. Conditions: route intraperitoneal.
Data set [25] deals with Mus musculus. Kind of data set: Net log cell kill was determined after injecting 6.25 mg/kg intraperitoneally in CD2F1 mice. Conditions: route intraperitoneal. The format is functional.
Data set [26] has as its system Mus musculus. Put plainly: Body weight change of test animals to that of control was determined after injection at 1.56 mg/kg intraperitoneally in CD2F1 mice. The format is functional. Conditions: route intraperitoneal.
Data set [27] relates to Mus musculus. Put plainly: Toxicity day survivors was determined by the ratio of animals survived to that of test animals at 50 mg/kg intraperitoneally in CD2F1 mice; 3/6. Format: organism-based. Set-up: dose 50 mg/kg, route intraperitoneal. Conditions: in vivo, ip.
Data set [28] concerns Mus musculus. Put plainly: Ratio of treated to that of untreated tumor-bearing control animals at 1.56 mg/kg intraperitoneally in CD2F1 mice was determined. The format is functional. Conditions: route intraperitoneal.
The test system of data set [29] is Mus musculus. Kind of data set: Ratio of treated to that of untreated tumor-bearing control animals at 3.12 mg/kg intraperitoneally in CD2F1 mice was determined. The format is functional. Conditions: route intraperitoneal.
The subject of data set [30] is Mus musculus. Put plainly: Body weight change of test animals to that of control was determined after injection at 50 mg/kg intraperitoneally in CD2F1 mice. The format is functional. Conditions: route intraperitoneal.
In data set [31] the test system is Mus musculus. Put plainly: Body weight change of test animals to that of control was determined after injection at 25 mg/kg intraperitoneally in CD2F1 mice. The format is functional. Conditions: route intraperitoneal.
The subject of data set [32] is Mus musculus. Put plainly: Net log cell kill was determined after injecting 12.5 mg/kg intraperitoneally in CD2F1 mice. The format is functional. Conditions: route intraperitoneal.
Data set [33] has as its system Mus musculus. Kind of data set: Toxicity day survivors was determined by the ratio of animals survived to that of test animals at 100 mg/kg intraperitoneally in CD2F1 mice; 0/6. Set-up: dose 100 mg/kg, route intraperitoneal. Conditions: in vivo, ip. Format: organism-based.
The subject of data set [34] is Mus musculus. Kind of data set: Body weight change of test animals to that of control was determined after injection at 6.25 mg/kg intraperitoneally in CD2F1 mice. Format: functional. Conditions: route intraperitoneal.
The subject of data set [35] is Mus musculus. Kind of data set: Toxicity day survivors was determined by the ratio of animals survived to that of test animals at 12.5 mg/kg intraperitoneally in CD2F1 mice; 6/6. The format is organism-based. Details: dose 12.5 mg/kg, route intraperitoneal. Conditions: in vivo, ip.
Data set [36] relates to Mus musculus. Put plainly: Toxicity day survivors was determined by the ratio of animals survived to that of test animals at 6.25 mg/kg intraperitoneally in CD2F1 mice; 6/6. Conditions: in vivo, ip. Format: organism-based. Set-up: dose 6.25 mg/kg, route intraperitoneal.
The test system of data set [37] is Mus musculus. Kind of data set: Toxicity day survivors was determined by the ratio of animals survived to that of test animals at 3.12 mg/kg intraperitoneally in CD2F1 mice; 6/6. Format: organism-based. Details: dose 3.12 mg/kg, route intraperitoneal. Conditions: in vivo, ip.

In the case of `CC(C)NC(=O)OCc1cn2c(c1COC(=O)NC(C)C)-c1cc(Cl)c(Cl)cc1CC2`, the TDS with Mus musculus [1], in the data set with Mus musculus [2], in the data set with Mus musculus [10] and in the data set on Mus musculus [12] was 6 throughout. For the same compound, the T-C was -0.4 g in the data set with Mus musculus [3], -3.6 g in the data set with Mus musculus [11], -2.3 g with Mus musculus [13] and -2.2 g with Mus musculus [16]. Further, the T/C (commonly the ratio of treated to control) came to 86% in the data set with Mus musculus [4], 185% in the data set on Mus musculus [5], 137% in the data set with Mus musculus [6] and 130% in the data set with Mus musculus [7]. In addition, the KE in the data set with Mus musculus [8] is recorded as -0.68; with Mus musculus [9] it was -1.54; in the data set with Mus musculus [14], 0.1; in the data set on Mus musculus [15], 5.05.

On to `CC(C)NC(=O)OCc1cn2c(c1COC(=O)NC(C)C)-c1ccccc1CC2`, for which the T-C in the data set on Mus musculus [17] is -0.5 g; in the data set on Mus musculus [20] it was -3.1 g; with Mus musculus [26], -0.3 g; with Mus musculus [30], -3.5 g; with Mus musculus [31], -4.2 g; in the data set with Mus musculus [34] it was -0.8 g. The TDS is reported as 4 with Mus musculus [18]; 6 with Mus musculus [21]; 3 in the data set on Mus musculus [27]; 0 in the data set with Mus musculus [33]; 6 in the data set on Mus musculus [35]; 6 with Mus musculus [36]. Further, the TDS in the data set on Mus musculus [37] is on record as 6. The KE in the data set on Mus musculus [19] is on record as -0.38; in the data set on Mus musculus [22], 0; with Mus musculus [25], 1.6; with Mus musculus [32] it was 3.84. The T/C with Mus musculus [23] came to 157%; in the data set with Mus musculus [24], 188%; in the data set with Mus musculus [28], 130%; in the data set with Mus musculus [29], 136%.

Values taken from ChEMBL document CHEMBL1124001, “Synthesis and antileukemic activity of bis[[(carbamoyl)oxy]methyl]- substituted pyrrolo[2,1-a]isoquinolines, pyrrolo[1,2-a]quinolines, pyrrolo[2,1-a]isobenzazepines, and pyrrolo[1,2-a]benzazepines” (J Med Chem, 1988).
